The values that follow come from patent US20150344540A1, “NOVEL GLP-1 RECEPTOR AGONISTS WITH CHOLESTEROL EFFLUX ACTIVITY” (NOVO NORDISK A/S, priority 2012, published 2015).

A short description of data set [1]: Pharmacokinetics in mini-pigs after i.v. administration. Particulars: female, Göttingen, minipig, iv, 5 nmol/kg. The source says:
The aim of the study is to assess the pharmacokinetic properties of the compounds of the invention, in mini-pigs.
Göttingen mini-pigs female, 15-20 kg, purchased from Ellegaard Mini-pigs, Denmark, were housed in the Animal Unit, Novo Nordisk A/S and were kept and handled according to normal procedure in the Animal Unit. After minimum 2 weeks of acclimatization two permanent central venous catheters were implemented in vena cava caudalis in each animal. After surgery the animals were in their normal individual pens during the pharmacokinetic experiments.
Intravenous injections were given through the central short catheter, which was flushed with min 10 ml of sterile saline post administration. The test substance was dosed at 5 nmol/kg, N=3, in a volume of 0.05 ml/kg.
On day 1 the catheters are coupled to extension tubes, which will be removed at the end of day 1.
Samples were kept on wet ice until centrifugation (10 min, 4° C., 1942 g). Afterwards, plasma (min. 100 μl) was transferred immediately to Micronic tubes and kept at −20° C. until analysis. The plasma samples were analysed by an immunoaasay described below.
The plasma concentrations of the peptides with intact N-terminus were determined using a Luminescence Oxygen Chanelling Immuno-assay (LOCI). The donor beads were coated with streptavidin, while acceptor beads were conjugated with a monoclonal antibody recognizing a mid-/C-terminal epitope of the peptide. The other monoclonal antibody, specific for the N-terminus, was biotinylated. The three reactants were combined with the analyte and formed a two-sited immuno-complex. Illumination of the complex released singlet oxygen atoms from the donor beads, which were channeled into the acceptor beads and triggered chemi-luminescence which was measured in an Envision plate reader. The amount of light was proportional to the concentration of the compound.
Plasma concentration-time profiles was analysed by a non-compartmental pharmacokinetics analysis using Phoenix (Pharsight Inc., Mountain View, Calif., USA). Calculations were performed using individual concentration-time values from each animal.

Data set [2] has as its system Mouse monocyte/macrophage cell line, RAW 264.7. Nature of the data set: Cholesterol efflux assay (3H-cholesterol, macrophage cell line). Type of data set: cell-based. The note with it: RAW 264.7, 4 hrs incubation, 0.1% human serum albumin; for 4 h Cholesterol Efflux Emax: ABCA1-mediated efflux.
The next data set has as its target human GLP-1 receptor (Homo sapiens, UniProt P43220). The data set is described as follows: Functional GLP-1 receptor assay, in vitro potency (CRE luciferase; whole cells). Type of data set: cell-based. The note with it: BHK cells expressing human GLP-1 receptor.
The mark [3] stands for this setting: plasma, T1/2 Mean Value, Göttingen mini-pigs, N=3.
Setting [4] is: 0% HSA, read-out: GLP1R CRE luc 0% HSA EC50 Mean Value.
The mark [5] stands for this setting: GLP1R CRE luc 1% HSA EC50 Mean Value, 1% HSA.

Read-outs that look alike come from different tables or passages of the source. Where a SMILES comes first, the peptide text is derived from it. Where no end group is shown, it is not given here. [ ]: non-standard residue; d: D form. Aib = CC(C)(N)C(=O)O

Chain of human GLP-1 receptor (P43220 24-463): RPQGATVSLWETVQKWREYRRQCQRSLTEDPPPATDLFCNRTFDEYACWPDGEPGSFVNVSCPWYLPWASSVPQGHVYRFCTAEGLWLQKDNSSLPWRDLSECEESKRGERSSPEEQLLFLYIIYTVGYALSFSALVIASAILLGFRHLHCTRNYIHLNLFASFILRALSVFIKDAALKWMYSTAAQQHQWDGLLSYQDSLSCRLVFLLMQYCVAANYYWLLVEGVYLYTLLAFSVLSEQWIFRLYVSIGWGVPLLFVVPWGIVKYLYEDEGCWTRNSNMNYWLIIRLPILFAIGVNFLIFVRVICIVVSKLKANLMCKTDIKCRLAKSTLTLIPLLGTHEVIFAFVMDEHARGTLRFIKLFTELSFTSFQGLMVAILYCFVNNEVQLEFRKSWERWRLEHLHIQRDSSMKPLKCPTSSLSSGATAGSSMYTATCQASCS

As a reminder, the Vd is a proportionality between amount in the body and measured concentration, not a real space. Read a low Vd as little distribution into tissue. In general, clearance refers to a measure of how efficiently the substance is removed, as volume per time. One may read the half-life as the time in which the quantity being followed falls by half. As usually defined, the EC50 is the concentration that produces a half-maximal response. Regarding `CC[C@H](C)[C@H](NC(=O)[C@H](Cc1ccccc1)NC(=O)[C@H](CCC(=O)O)NC(=O)[C@H](CCCCN)NC(=O)[C@@H](NC(=O)[C@H](C)NC(=O)[C@H](CCC(=O)O)NC(=O)CNC(=O)[C@H](CCC(=O)O)NC(=O)[C@H](CC(C)C)NC(=O)[C@H](Cc1ccc(O)cc1)NC(=O)[C@H](CO)NC(=O)[C@H](CO)NC(=O)[C@@H](NC(=O)[C@H](CC(=O)O)NC(=O)[C@H](CO)NC(=O)[C@@H](NC(=O)[C@H](Cc1ccccc1)NC(=O)[C@@H](NC(=O)CNC(=O)[C@H](CCC(=O)O)NC(=O)C(C)(C)NC(=O)[C@@H](N)Cc1c[nH]cn1)[C@@H](C)O)[C@@H](C)O)C(C)C)C(C)C)C(=O)N[C@@H](C)C(=O)N[C@@H](Cc1c[nH]c2ccccc12)C(=O)N[C@@H](CC(C)C)C(=O)N[C@H](C(=O)N[C@@H](CCC(=O)O)C(=O)N[C@@H](CCCCN)C(=O)NC(C)(C)C(=O)N[C@@H](CCCCN)C(=O)N[C@@H](CCC(=O)O)C(=O)N[C@@H](Cc1ccccc1)C(=O)N[C@@H](CC(C)C)C(=O)N[C@@H](CCC(=O)O)C(=O)N[C@@H](CCCCN)C(=O)O)C(C)C` [Compound 99, [Aib8,Glu23,Val25,Glu34,Lys35,Aib36,Lys37]-GLP-1-(7-37)-peptidyl-Glu-Phe-Leu-Glu-Lys], in data set [1] (in vivo), the C0 was found to be 95.8 nM, the Vd came out at 0.0921 L/kg, the clearance is 1.2 mL/h/kg and the half-life is 53.2 h. Moreover, the “4 h Cholesterol Efflux Emax” value in data set [2] is listed as 99%. The EC50 in data set [2] (read-out: 4 h Cholesterol Efflux EC50, ABCA1-mediated efflux (CPT-cAMP induced minus non-induced)) came to 290 nM.
In data set [1] (plasma), `CC[C@H](C)[C@H](NC(=O)[C@H](Cc1ccccc1)NC(=O)[C@H](CCC(=O)O)NC(=O)[C@H](CCCCN)NC(=O)[C@@H](NC(=O)[C@H](C)NC(=O)[C@H](CCC(=O)O)NC(=O)CNC(=O)[C@H](CCC(=O)O)NC(=O)[C@H](CC(C)C)NC(=O)[C@H](Cc1ccc(O)cc1)NC(=O)[C@H](CO)NC(=O)[C@H](CO)NC(=O)[C@@H](NC(=O)[C@H](CC(=O)O)NC(=O)[C@H](CO)NC(=O)[C@@H](NC(=O)[C@H](Cc1ccccc1)NC(=O)[C@@H](NC(=O)CNC(=O)[C@H](CCC(=O)O)NC(=O)C(C)(C)NC(=O)[C@@H](N)Cc1c[nH]cn1)[C@@H](C)O)[C@@H](C)O)C(C)C)C(C)C)C(=O)N[C@@H](C)C(=O)N[C@@H](Cc1c[nH]c2ccccc12)C(=O)N[C@@H](CC(C)C)C(=O)N[C@H](C(=O)N[C@@H](CCC(=O)O)C(=O)N[C@@H](CCCCN)C(=O)NC(C)(C)C(=O)N[C@@H](CCCCN)C(=O)N[C@@H](CCC(=O)O)C(=O)N[C@@H](Cc1ccccc1)C(=O)N[C@@H](CC(C)C)C(=O)N[C@@H](CCC(=O)O)C(=O)N[C@@H](CCCCN)C(=O)N[C@H](C(N)=O)C(C)C)C(C)C` [Compound 54, [Aib8,Glu23,Val25,Glu34,Lys35,Aib36,Lys37]-GLP-1-(7-37)-peptidyl-Glu-Phe-Leu-Glu-Lys-Val amide] showed a C0 of 136 nM, a Vd of 0.0802 L/kg and a clearance of 1.31 mL/h/kg. In addition, the half-life in data set [1] (setting [3]) is 40.7 h. Moreover, the “4 h Cholesterol Efflux Emax” value in data set [2] came to 121%.
For `CC[C@H](C)[C@H](NC(=O)[C@H](Cc1ccccc1)NC(=O)[C@H](CCC(=O)O)NC(=O)[C@H](CCCCN)NC(=O)[C@@H](NC(=O)[C@H](CCCCN)NC(=O)[C@H](CCC(=O)O)NC(=O)CNC(=O)[C@H](CCC(=O)O)NC(=O)[C@H](CC(C)C)NC(=O)[C@H](Cc1ccc(O)cc1)NC(=O)[C@H](CO)NC(=O)[C@H](CO)NC(=O)[C@@H](NC(=O)[C@H](CC(=O)O)NC(=O)[C@H](CO)NC(=O)[C@@H](NC(=O)[C@H](Cc1ccccc1)NC(=O)[C@@H](NC(=O)CNC(=O)[C@H](CCC(=O)O)NC(=O)C(C)(C)NC(=O)[C@@H](N)Cc1c[nH]cn1)[C@@H](C)O)[C@@H](C)O)C(C)C)C(C)C)C(=O)N[C@@H](CCC(=O)O)C(=O)N[C@@H](Cc1c[nH]c2ccccc12)C(=O)N[C@@H](CC(C)C)C(=O)N[C@H](C(=O)N[C@@H](CCC(=O)O)C(=O)N[C@@H](CCCCN)C(=O)NC(C)(C)C(=O)N[C@@H](CCCCN)C(=O)N[C@@H](CCC(=O)O)C(=O)N[C@@H](Cc1ccccc1)C(=O)N[C@@H](CC(C)C)C(N)=O)C(C)C` [Compound 49, [Aib8,Glu23,Lys24,Val25,Glu30,Glu34,Lys35,Aib36,Lys37]-GLP-1-(7-37)-peptidyl-Glu-Phe-Leu amide] (H-H[Aib]EGTFTSDVSSYLEGEKVKEFIEWLVEK[Aib]KEFL-NH2) the same measures were 131 nM, 0.0878 L/kg, 2.68 mL/h/kg, 24 h and 123%.
In data set [1] (in vivo), “HGEGTFTSDVSSYLEGEAVKEFIAWLVEKVKEHL-NH2 [Compound 78, [Gly8,Glu23,Val25,Glu34,Lys35,Val36,Lys37]-GLP-1-(7-37)-peptidyl-Glu-His-Leu amide]” had a C0 of 58.4 nM, a Vd of 0.134 L/kg and a clearance of 4.45 mL/h/kg. Besides, the half-life in data set [1] (in vivo, T1/2 Mean Value) is 20.6 h.
On to “HAEGTFTSDVSSYLEGQAAKEFIAWLVEKVKEHL-NH2 [Compound 107, [Glu34,Lys35,Val36,Lys37]-GLP-1-(7-37)-peptidyl-Glu-His-Leu amide]”, for which the concentration giving a half-maximal response (EC50) on human GLP-1 receptor (setting [4]) was 0.04 nM. Besides, it took 0.01 nM to reach a half-maximal effect on human GLP-1 receptor (setting [5]) (EC50). In data set [1] (plasma), this molecule showed a C0 of 59.2 nM, a Vd of 0.0615 L/kg and a clearance of 8.04 mL/h/kg. Further, the half-life in data set [1] (setting [3]) was 5.4 h.
As for “HGEGTFTSDVSSYLEGEAVKEFIAWLVEKVKEFL-NH2 [Compound 76, [Gly8,Glu23,Val25,Glu34,Lys35,Val36,Lys37]-GLP-1-(7-37)-peptidyl-Glu-Phe-Leu amide]”, in data set [1] (in vivo), the C0 turned out to be 136 nM, the Vd is 0.0636 L/kg and the clearance was 1.06 mL/h/kg. The same molecule gave a half-life in data set [1] (in vivo, T1/2 Mean Value) of 41.7 h.
In data set [1] (plasma), “HAEGTFTSDVSSYLEGEAVKEFIAWLVEKVKEFL-NH2 [Compound 67, [Glu23,Val25,Glu34,Lys35,Val36,Lys37]-GLP-1-(7-37)-peptidyl-Glu-Phe-Leu amide]” showed a C0 of 163 nM, a Vd of 0.056 L/kg and a clearance of 1.17 mL/h/kg. This molecule gave a half-life in data set [1] (setting [3]) of 33 h.
Turning to `CC[C@H](C)[C@H](NC(=O)[C@H](Cc1ccccc1)NC(=O)[C@H](CCC(=O)O)NC(=O)[C@H](CCCNC(=N)N)NC(=O)[C@@H](NC(=O)[C@H](C)NC(=O)[C@H](CCC(=O)O)NC(=O)CNC(=O)[C@H](CCC(=O)O)NC(=O)[C@H](CC(C)C)NC(=O)[C@H](Cc1ccc(O)cc1)NC(=O)[C@H](CO)NC(=O)[C@H](CO)NC(=O)[C@@H](NC(=O)[C@H](CC(=O)O)NC(=O)[C@H](CO)NC(=O)[C@@H](NC(=O)[C@H](Cc1ccccc1)NC(=O)[C@@H](NC(=O)CNC(=O)[C@H](CCC(=O)O)NC(=O)C(C)(C)NC(=O)[C@@H](N)Cc1c[nH]cn1)[C@@H](C)O)[C@@H](C)O)C(C)C)C(C)C)C(=O)N[C@@H](C)C(=O)N[C@@H](Cc1c[nH]c2ccccc12)C(=O)N[C@@H](CC(C)C)C(=O)N[C@H](C(=O)N[C@@H](CCC(=O)O)C(=O)N[C@@H](CCCNC(=N)N)C(=O)N[C@H](C(=O)N[C@@H](CCCNC(=N)N)C(=O)N[C@@H](CCC(=O)O)C(=O)N[C@@H](Cc1ccccc1)C(=O)N[C@@H](CC(C)C)C(=O)N[C@@H](CCCCN)C(N)=O)C(C)C)C(C)C` [Compound 91] (H-H[Aib]EGTFTSDVSSYLEGEAVREFIAWLVERVREFLK-NH2), at human GLP-1 receptor (setting [5]), the EC50 stood at 0.118 nM. In addition, the “4 h Cholesterol Efflux Emax” value in data set [2] came to 103%.
As to “H-HAEGTFTSDVSSYLEGQAAKEFIAWLVEKVKEFLDK-OH [Compound 129, [Glu34,Lys35,Val36,Lys37]-GLP-1-(7-37)-peptidyl-Glu-Phe-Leu-Asp-Lys]”, the figures for the EC50 on human GLP-1 receptor (setting [4]) and at human GLP-1 receptor (setting [5]) were 0.045 nM and 0.012 nM, respectively. Besides, the “4 h Cholesterol Efflux Emax” value in data set [2] came to 111%.
